Measurements reported in ChEMBL document CHEMBL5584237, “Design, synthesis, biological evaluation, and in silico studies of novel pyridopyridine derivatives as anticancer candidates targeting FMS kinase” (Eur J Med Chem, 2024).
Active and inactive are the calls of the source. The rule behind the calls is not given here.

How the values were obtained:
K562 = assay: Antiproliferative activity against human K562 cells assessed as cell growth inhibition; assay type: functional
MOLT-4 = assay: Antiproliferative activity against human MOLT-4 cells assessed as cell growth inhibition; assay type: functional
SR = assay: Antiproliferative activity against human SR cells assessed as cell growth inhibition; assay type: functional
COLO 205 = assay: Antiproliferative activity against human COLO 205 cells assessed as cell growth inhibition; assay type: functional
HCT-15 = assay: Antiproliferative activity against human HCT-15 cells assessed as cell growth inhibition; assay type: functional
SW-620 = assay: Antiproliferative activity against human SW-620 cells assessed as cell growth inhibition; assay type: functional
SF-295 = assay: Antiproliferative activity against human SF-295 cells assessed as cell growth inhibition; assay type: functional
SF-539 = assay: Antiproliferative activity against human SF-539 cells assessed as cell growth inhibition; assay type: functional
LOX IMVI = assay: Antiproliferative activity against human LOX IMVI cells assessed as cell growth inhibition; assay type: functional
Malme-3M = assay: Antiproliferative activity against human Malme-3M cells assessed as cell growth inhibition; assay type: functional
M14 = assay: Antiproliferative activity against human M14 cells assessed as cell growth inhibition; assay type: functional
SK-MEL-28 = assay: Antiproliferative activity against human SK-MEL-28 cells assessed as cell growth inhibition; assay type: functional
OVCAR-3 = assay: Antiproliferative activity against human OVCAR-3 cells assessed as cell growth inhibition; assay type: functional
OVCAR-4 = assay: Antiproliferative activity against human OVCAR-4 cells assessed as cell growth inhibition; assay type: functional
CAKI-1 = assay: Antiproliferative activity against human CAKI-1 cells assessed as cell growth inhibition; assay type: functional
RXF 393 = assay: Antiproliferative activity against human RXF 393 cells assessed as cell growth inhibition; assay type: functional
SN12C = assay: Antiproliferative activity against human SN12C cells assessed as cell growth inhibition; assay type: functional
DU-145 = assay: Antiproliferative activity against human DU-145 cells assessed as cell growth inhibition; assay type: functional
MDA-MB-231 = assay: Antiproliferative activity against human MDA-MB-231 cells assessed as cell growth inhibition; assay type: functional
[1] = Selectivity index, ratio of IC50 for human WI-38 cells to IC50 for human CCRF-CEM cells; assay type: toxicity; settings: WI-38 cells and CCRF-CEM cells, read-out: Ratio IC50
[2] = Selectivity index, ratio of IC50 for human WI-38 cells to IC50 for human K562 cells; assay type: toxicity; settings: WI-38 cells and K562 cells, read-out: Ratio IC50
[3] = Selectivity index, ratio of IC50 for human WI-38 cells to IC50 for human MOLT-4 cells
[4] = Selectivity index, ratio of IC50 for human WI-38 cells to IC50 for human SW-620 cells
[5] = Selectivity index, ratio of IC50 for human WI-38 cells to IC50 for human SF-295 cells
[6] = Selectivity index, ratio of IC50 for human WI-38 cells to IC50 for human SF-539 cells
[7] = Selectivity index, ratio of IC50 for human WI-38 cells to IC50 for human Malme-3M cells
[8] = Selectivity index, ratio of IC50 for human WI-38 cells to IC50 for human MDA-MB-435 cells
[9] = Selectivity index, ratio of IC50 for human WI-38 cells to IC50 for human RXF 393 cells
[10] = Selectivity index, ratio of IC50 for human WI-38 cells to IC50 for human PC-3 cells; assay type: toxicity; settings: WI-38 cells and PC-3 cells, read-out: Ratio IC50
[11] = Selectivity index, ratio of IC50 for human HS27 cells to IC50 for human CCRF-CEM cells
[12] = Selectivity index, ratio of IC50 for human HS27 cells to IC50 for human SR cells
[13] = Selectivity index, ratio of IC50 for human HS27 cells to IC50 for human NCI-H460 cells
[14] = Selectivity index, ratio of IC50 for human HS27 cells to IC50 for human HCT-116 cells
[15] = Selectivity index, ratio of IC50 for human HS27 cells to IC50 for human SW-620 cells
[16] = Selectivity index, ratio of IC50 for human HS27 cells to IC50 for human LOX IMVI cells
[17] = Selectivity index, ratio of IC50 for human HS27 cells to IC50 for human SK-MEL-28 cells
[18] = Selectivity index, ratio of IC50 for human HS27 cells to IC50 for human OVCAR-3 cells
[19] = Selectivity index, ratio of IC50 for human HS27 cells to IC50 for human CAKI-1 cells
[20] = Selectivity index, ratio of IC50 for human HS27 cells to IC50 for human SN12C cells
[21] = Selectivity index, ratio of IC50 for human HS27 cells to IC50 for human DU-145 cells
[22] = Selectivity index, ratio of IC50 for human HS27 cells to IC50 for human Hs-578T cells
[23] = Selectivity index, ratio of IC50 for human HS27 cells to IC50 for human MDA-MB-468 cells
Hep 3B2 [24] = assay: Induction of apoptosis in human Hep3B cells assessed as increase in cleaved PARP expression at 3.38 uM measured after 48 hrs by Western blot analysis relative to control; assay type: functional
Hep 3B2 [25] = assay: Induction of apoptosis in human Hep3B cells assessed as increase in cleaved PARP expression measured after 48 hrs by Western blot analysis; assay type: functional, cell-based
Hep 3B2 [26] = assay: Cell cycle arrest in human Hep3B cells assessed as downregulation of cyclin D1 expression at 3.38 uM measured after 48 hrs by Western blot analysis; assay type: functional, cell-based
[27] = biological target: Macrophage colony-stimulating factor 1 receptor (Homo sapiens, UniProt P07333); assay: Inhibition of FMS (unknown origin) using myelin basic protein as substrate measured after 40 mins in presence of [gamma-33P]-ATP by scintillation counting method; settings: read-out: IC50
Sequence of Macrophage colony-stimulating factor 1 receptor (P07333 whole entry): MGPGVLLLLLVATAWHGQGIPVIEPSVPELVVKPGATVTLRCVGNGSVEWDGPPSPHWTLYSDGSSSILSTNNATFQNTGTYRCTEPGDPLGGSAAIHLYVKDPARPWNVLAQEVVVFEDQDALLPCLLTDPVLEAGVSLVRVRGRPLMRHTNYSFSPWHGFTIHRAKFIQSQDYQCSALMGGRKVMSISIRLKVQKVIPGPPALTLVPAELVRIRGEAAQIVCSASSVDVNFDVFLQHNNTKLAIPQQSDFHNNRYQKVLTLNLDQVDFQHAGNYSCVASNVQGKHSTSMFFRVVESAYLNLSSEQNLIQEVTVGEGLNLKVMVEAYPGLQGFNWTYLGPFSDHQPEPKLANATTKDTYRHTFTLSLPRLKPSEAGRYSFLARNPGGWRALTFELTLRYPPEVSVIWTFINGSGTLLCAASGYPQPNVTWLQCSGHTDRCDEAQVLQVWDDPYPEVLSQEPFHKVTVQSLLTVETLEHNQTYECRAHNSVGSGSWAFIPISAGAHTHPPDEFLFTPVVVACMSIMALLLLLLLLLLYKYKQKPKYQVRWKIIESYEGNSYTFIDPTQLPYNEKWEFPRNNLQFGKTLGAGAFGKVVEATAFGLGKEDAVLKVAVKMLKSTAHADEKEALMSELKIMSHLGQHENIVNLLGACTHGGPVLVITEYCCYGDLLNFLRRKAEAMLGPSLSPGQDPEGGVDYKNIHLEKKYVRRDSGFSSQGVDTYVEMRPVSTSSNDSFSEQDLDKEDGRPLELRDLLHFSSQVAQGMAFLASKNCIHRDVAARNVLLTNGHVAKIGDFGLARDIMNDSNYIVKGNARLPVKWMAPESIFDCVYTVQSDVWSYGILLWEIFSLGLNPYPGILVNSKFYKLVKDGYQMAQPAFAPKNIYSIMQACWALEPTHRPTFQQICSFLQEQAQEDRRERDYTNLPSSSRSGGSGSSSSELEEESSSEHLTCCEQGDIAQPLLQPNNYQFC

HepG2 = assay: cells; settings: Homo sapiens, HepG2, 48 h
Description: Antiproliferative activity against human HepG2 cells assessed as cell growth inhibition measured after 48 hrs by MTT assay

in vitro = settings: human, WI-38 cells and A549 cells
Description: Selectivity index, ratio of IC50 for human WI-38 cells to IC50 for human A549 cells

GI50 (K562): 1000 nM | GI50 (COLO 205): 930 nM | GI50 (HCT-15): 670 nM | GI50 (SW-620): 640 nM | GI50 (SK-MEL-28): 750 nM | GI50 (OVCAR-3): 640 nM | GI50 (OVCAR-4): 880 nM | GI50 (DU-145): 750 nM | GI50 (MDA-MB-231): 610 nM | IC50 [27]: 993 nM | IC50 (HepG2): 460 nM
SMILES: CCN1CCN(c2ccc(NC(=O)Nc3ccc(-c4cc(C(=O)NC(C)C)c5ncccc5n4)cc3)cc2C(F)(F)F)CC1
TGI (K562): 34500 nM | TGI (MOLT-4): 30600 nM | TGI (SR): 12100 nM | TGI (COLO 205): 2710 nM | TGI (HCT-15): 1350 nM | TGI (SW-620): 1260 nM | GI50 (SF-295): 580 nM | TGI (SF-295): 1140 nM | GI50 (SF-539): 530 nM | TGI (SF-539): 1020 nM | GI50 (LOX IMVI): 560 nM | TGI (LOX IMVI): 1050 nM | GI50 (Malme-3M): 580 nM | TGI (Malme-3M): 1050 nM | GI50 (M14): 720 nM | TGI (M14): 1900 nM | TGI (SK-MEL-28): 1850 nM | TGI (OVCAR-3): 1360 nM | TGI (OVCAR-4): 2450 nM | GI50 (CAKI-1): 800 nM | TGI (CAKI-1): 2080 nM | GI50 (RXF 393): 650 nM | TGI (RXF 393): 1730 nM | GI50 (SN12C): 670 nM | TGI (SN12C): 1380 nM | TGI (DU-145): 1580 nM | TGI (MDA-MB-231): 1180 nM | selectivity ratio [1]: 15.4 | selectivity ratio [2]: 15.4 | Ratio IC50 [3]: 15.43 | Ratio IC50 [4]: 18.84 | Ratio IC50 [5]: 8.71 | Ratio IC50 [6]: 8.71 | Ratio IC50 [7]: 8.62 | Ratio IC50 [8]: 8.62 | Ratio IC50 [9]: 10.52 | selectivity ratio [10]: 21.6 | Ratio IC50 [11]: 8 | Ratio IC50 [12]: 8 | Ratio IC50 [13]: 3.32 | Ratio IC50 [14]: 9.77 | Ratio IC50 [15]: 9.77 | Ratio IC50 [16]: 4.47 | Ratio IC50 [17]: 4.47 | Ratio IC50 [18]: 3.05 | Ratio IC50 [19]: 5.45 | Ratio IC50 [20]: 5.45 | Ratio IC50 [21]: 11.2 | Ratio IC50 [22]: 5.22 | Ratio IC50 [23]: 5.22 | fold change (FC) (Hep 3B2 [24]): 27 | Activity (Hep 3B2 [25]): Dose-Dependent Effect | Activity (Hep 3B2 [26]): Active | selectivity ratio (in vitro): 6.4
